Experimental data taken from patent US20110112308A1 (NOVARTIS AG, priority 2006, published 2011).

Tests used:
[1] = Solid samples held at 93% r.h. (XRPD, TGA); format: physicochemical; conditions: 93% r.h., 10 days
Method: (§1) An approximate solubility of the below-listed salts was determined in water and at pH 1 by suspending 5-15 mg of the salt in 1 mL of solvent. The samples were allowed to equilibrate at ambient temperature for at least 20 hours. The supernatant was filtered and used for the solubility determination, which was done gravimetrically, for the aqueous solubility, and by UV-VIS spectroscopy for pH 1. The solid residue was analyzed by XRPD. […] They were subsequently analyzed by XRPD and TGA, if the latter deemed necessary. Only irreversible or slowly reversible events can be detected.

[2] = Approximate solubility in water and at pH 1 (supplemental testing); format: physicochemical; conditions: for Form by XRPD of solid residue, Water: after equilibration in water > 20 hours
Method: as §1

Solid State (EQ 93% r.h.) Form by XRPD [1]: No change
approximate aqueous solubility [2]: ~1400 µg/mL
S (approximate solubility), pH 1 ([2]; EQ t > 20 hours, ambient temperature, UV-VIS): 0.42 mg/mL
S (approximate solubility), Water ([2]; EQ t > 20 hours, ambient temperature, gravimetric): 1380 µg/mL
Form by XRPD of solid residue, Water [2]: No change
Form by XRPD of solid residue, Water ([2]; listed as malate): No structural change
Substance: 2:1 malate (hemi-malate) salt of N-hydroxy-3-[4-[[[2-(2-methyl-1H-indol-3-yl) ethyl]amino]methyl]phenyl]-2E-2-propenamide
